Data on six compounds can be found in US10961180B2, “Branched trialkyl amine oxides” (Eastman Chemical Company, priority 2018, dated 2021).

A short description of data set [1]: Draves Wetting Test (ASTM D2281-68), wet-out time. The data set is classed as physicochemical. Particulars: 0.05 wt % actives in DI water, average of 3. The method, then: The surface wetting ability of the amine oxides with linear and branched hydrophobes from Examples 43 to 45 were compared using the Draves Wetting Test (ASTM D2281-68). A 0.05 wt % (actives basis) solution of amine oxide in deionized (DI) water was used to determine the Draves wet-out time (WOT) in seconds. 0.75 g of surfactant was dispersed in 1,500 ml of DI water. The wet-out time (WOT) in seconds is recorded in Table 7 (average of 3 measurements). LAO is Lauramine oxide (linear hydrophobe), Sigma catalog number 40236.

A short description of data set [2]: Foam height, high shear (Waring blender) in deionized water. Format: physicochemical. Particulars: for Foam volume (ml) 5 min / Foam volume (ml) Initial: 0.05 wt % in deionized water; for Foam volume (ml) 5 min: after 5 min; for Foam volume (ml) Initial: blended High 30 s. The procedure: The surface foam volume and persistence of the amine oxides with linear and branched hydrophobes from Examples 43 and 44 were compared. A 0.05 wt % (actives basis) solution of the test surfactant was made in deionized water. 250 ml of the test solution was added the beaker of a Waring blender, capped, and then blended on High for 30 seconds and immediately transferred to a 1 L graduated cylinder. The total volume of foam plus liquid, as well as the liquid layer alone was recorded. The foam and liquid volumes were recorded again after 5 minutes.

Data set [3] is described as follows: Stain removal in cold water, swatch brightness, simple laundry liquid. Particulars: 0.05% active additive, compared to LAO.
Procedure: Amine oxides with linear and branched hydrophobes were compared in a screen for stain removal in cold water. Simple laundry liquid formulations were made that included only surfactants and builder.
Standard stain swatches were purchased from Testfabrics, Inc. (West Pittston, Pa.). […] The swatches were pre-cut into 2 inch squares. The test formulation was diluted with DI water to 0.06% total surfactant to make the wash solution. Additives were added at a final concentration of 0.05% active in the wash solution. Stained fabric swatches were added to the wash solution, washed and rinsed at 20° C., and air-dried. The average swatch brightness (L*) for each treatment, and standard deviation, are reported for 3 replicates.
Data set [4] is described as follows: Salt thickening: viscosity of SLS/SLES/amine oxide formulation vs NaCl content. The data set is classed as physicochemical. Particulars: 1.4% amine oxide, 4.3% SLS, 4.3% SLES, shear rate 3/s. The method, then:
The viscosity (cP; shear rate 3/s) of a simple formulation was measured as the salt concentration varied from 0 to 5 wt %.

A short description of data set [5]: Foaming in diluted commercial laundry liquid (Persil Original), Waring blender. The data set is classed as physicochemical. The conditions noted are these: for Difference: initial minus 5 min. The method, then:
The surface foam volume and foam persistence of solutions of the amine oxides with linear and branched hydrophobes from Examples 25 and 26 were compared. A commercial laundry liquid was diluted in deionized water according to the dosing instructions; 4.2 ml/L Persil Original. The diluted detergent was supplemented with 0%, 2%, 5% (based on wt laundry liquid) of LAO or Branched C12 AO,(2,4-diethyl-N,N-dimethyloctan-1-amine oxide, Example 66), and the solutions mixed briefly and used immediately. 250 ml of each test solution was added the beaker of a Waring blender, capped, and then blended on High for 30 seconds and immediately transferred to a 1 L graduated cylinder. The total volume of foam plus liquid, as well as the liquid layer alone was recorded. The foam and liquid volumes were recorded again after 5 minutes. All tests were performed in triplicate.

The test system of another data set is zein protein. The arrangement: species or system corn. Particulars: 1% surfactant solution, 30 C, 30 min, triplicate.

Procedure for zein protein: For the test, 0.0750 g of zein protein is transferred into a 1.5 mL centrifuge tube. To this 1.5 mL of 1% surfactant solution is added, mixed, and placed in a 30 C incubator with mild stirring for 30 minutes. After 30 minutes has elapsed, the tube is centrifuged for 30 min at 3600 rpm. The solution is filtered through a pre-weighed 8 micron filter paper, and then dried overnight in a 50° C. oven. The insoluble zein residue is then weighed and the wt % Zein dissolved is calculated using the equation below. Each solution is analyzed in triplicate. The Zein score is normalized to a standard included in each set of tests, in this case LAE10; (% zein dissolved=(total zein added−total zein after drying÷Total zein added)×100).

For the compound “4-ethyl-N,N-2-trimethyloctan-1-amine oxide [Example 43]”, the Wet out time in data set [1] is >300 s. Moreover, in data set [2], the “Foam volume (ml) 5 min” value is 0 mL and the “Foam volume (ml) Initial” value is 267 mL. Also, the “% decrease” value in data set [2] (foam volume, initial to 5 min) is 100%.
As to `CCCCC(CC)CC(C)C[N+](C)(C)[O-]` (centres unmarked) [Example 43, 4-ethyl-N,N-2-trimethyloctan-1-amine oxide], the “Foam in the wash solution” value in data set [3] was “very little foam”. Besides, the Viscosity in data set [4] (NaCl 0.5 wt %) worked out at 7 cP; in data set [4] (NaCl 1.0 wt %), 36 cP; in data set [4] (NaCl 4.0 wt %), 670 cP.
In the case of `CCCCC(CC)CC(CC)C[N+](C)(C)[O-]` (centres unmarked) [Example 44, 2,4-diethyl-N,N-dimethyloctan-1-amine oxide], the “Initial foam volume” value in data set [5] (Persil Original 4.2 ml/L + 2% amine oxide (on wt laundry liquid)) worked out at 560 mL. Further, the Difference in data set [5] (Persil + 2% amine oxide) was determined as 257 mL; in data set [5] (Persil + 5% amine oxide), 280 mL. Moreover, in data set [1], the Wet out time was >300 s. Also, the “Zein score - normalized to LAE10” value in the data set with zein protein was 0.018. The “Foam volume (ml) 5 min” value in data set [2] is 0 mL. In data set [2], the “Foam volume (ml) Initial” value came to 370 mL.
In the case of `CCCCCCCCCCCC[N+](C)(C)[O-]` [LAO, N,N-dimethyl laurylamine oxide, reference compound], the Difference was determined as 54 mL in data set [5] (Persil + 2% amine oxide) and 6 mL in data set [5] (Persil + 5% amine oxide). Moreover, the Viscosity in data set [4] (NaCl 0.5 wt %) is listed as 2 cP; in data set [4] (NaCl 1.0 wt %), 11 cP. In data set [1], the Wet out time is 33 s. In addition, the “Foam volume (ml) 5 min” value in data set [2] was 500 mL.
Alkylpolyglucoside [APG]: the “Zein score - normalized to LAE10” value in the data set on zein protein is reported as 0.586.
Take Linear alkylbenzene sulfonate [LABS]: in the data set on zein protein, the “Zein score - normalized to LAE10” value was 4.670.
